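Method: 48-hour compound exposure of cells in 96-well plates, five concentrations, linear interpolation of endpoints. Here, GI50 denotes the concentration required for 50% inhibition of growth.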 The source made the active and inactive calls. No stated cut-off is given here; in the data, active = GI50 up to about 1.1 µM and inactive = higher.
Columns and labels:
Assay in all cases: inhibition of tumour cell growth, NCI panel, 48 h
[1] = tested on: KM12
[2] = tested on: UACC-62
[3] = tested on: HCT-116
[4] = tested on: NCI-H460
[5] = tested on: SK-MEL-5
[6] = tested on: HOP-92
[7] = tested on: K562
[8] = tested on: OVCAR-8
[9] = tested on: UACC-257
[10] = tested on: IGROV-1
[11] = tested on: SK-MEL-28
[12] = tested on: M14
[13] = tested on: MDA-N
[14] = tested on: ACHN
[15] = tested on: HOP-62
[16] = tested on: Malme-3M
[17] = tested on: OVCAR-3
[18] = tested on: OVCAR-5
[19] = tested on: SF-268

Measured: GI50

COC1(OC)C(/C(N)=C\O)=NC(C)(C)N1O
inactive: [1] > 100 µM | [2] > 100 µM | [3] > 100 µM | [4] > 100 µM | [5] 71.6 µM | [6] > 100 µM | [7] > 100 µM | [8] > 100 µM | [9] > 100 µM | [10] > 100 µM | [11] > 100 µM | [12] > 100 µM | [13] > 100 µM | [14] > 100 µM | [15] > 100 µM | [16] > 100 µM | [17] 29.9 µM | [18] > 100 µM

ClCCN1CCC2(CC1)SSC1(CCN(CCCl)CC1)S2
inactive: [1] > 100 µM | [2] 20.8 µM | [3] 45.9 µM | [4] 29.3 µM | [5] 42.4 µM | [6] 1.79 µM | [7] 37.8 µM | [8] > 100 µM | [9] > 100 µM | [10] 74 µM | [11] > 100 µM | [12] 61.4 µM | [13] > 100 µM | [14] 40.5 µM | [15] > 100 µM | [16] 29.2 µM | [17] 19.7 µM | [18] 29.6 µM | [19] 10.8 µM

COc1ccc(C[C@@H](CO)NC2=C(C#N)CCC2)cc1
inactive: [1] 19.5 µM | [2] 31.5 µM | [3] 38.5 µM | [4] 64.7 µM | [5] 34.9 µM | [6] 43.5 µM | [7] 33.4 µM | [8] 64.4 µM | [9] 34.6 µM | [11] 74.1 µM | [12] 41.4 µM | [13] 28.6 µM | [14] 49.9 µM | [15] 56.5 µM | [16] 34.7 µM | [17] 36.8 µM | [18] 71.6 µM | [19] 58.9 µM

Cc1cc(/N=N/c2ccccc2C)ccc1N
inactive: [1] 10.6 µM | [2] 12.5 µM | [3] 15.5 µM | [4] 3.19 µM | [5] 15.8 µM | [6] 10.5 µM | [7] 11.4 µM | [8] 15.2 µM | [9] 17.9 µM | [10] 14.6 µM | [11] 21 µM | [12] 12.4 µM | [13] 18.5 µM | [14] 5.52 µM | [15] 5.6 µM | [16] 19 µM | [17] 7.35 µM | [18] 17.9 µM

Reference: ChEMBL document CHEMBL1201862, “PubChem BioAssay data set” (2004)
